Values after ≈ are worked out from the molar mass of the structure shown. Values belong to the compound of their own block, whether it stands above or below them.
What was measured:
Staphylococcus aureus [1] = test: Antibacterial activity against Staphylococcus aureus ATCC 29213 by broth microdilution method; assay type: functional
Staphylococcus aureus [2] = test: Antibacterial activity against vancomycin-resistant Staphylococcus aureus VRS1 clinical isolate by broth microdilution method; assay type: functional
Staphylococcus aureus [3] = test: Antibacterial activity against vancomycin-resistant Staphylococcus aureus VRS2 clinical isolate by broth microdilution method; assay type: functional
[4] = test system: Staphylococcus haemolyticus; test: Antibacterial activity against Staphylococcus haemolyticus ATCC 29970 by broth microdilution method; assay type: functional
Enterococcus faecalis [5] = test: Antibacterial activity against Enterococcus faecalis ATCC 29212 by broth microdilution method; assay type: functional
Enterococcus faecalis [6] = test: Antibacterial activity against vancomycin-susceptible Enterococcus faecalis 201 clinical isolate by broth microdilution method; assay type: functional
[7] = Plasma protein binding in human at […] incubated for 2 hrs by UPLC analysis; assay type: ADME, cell-free; settings: read-out: PPB (converted)
HepG2 = test: Cytotoxicity against human HepG2 cells assessed as reduction in cell viability by XTT assay; assay type: cell-based
[8] = Hemolytic activity in human RBC relative to control; assay type: ADME, cell-based, Erythrocyte; settings: red blood cells (erythrocytes), read-out: Activity
Staphylococcus aureus [9] = test: Antibacterial activity against Staphylococcus aureus ATCC 27660 by broth microdilution method; assay type: functional
Staphylococcus aureus [10] = test: Antibacterial activity against Staphylococcus aureus N315 (NRS70) by broth microdilution method; assay type: functional
Staphylococcus aureus [11] = test: Antibacterial activity against Staphylococcus aureus NRS100 (COL) by broth microdilution method; assay type: functional
Staphylococcus aureus [12] = test: Antibacterial activity against Staphylococcus aureus NRS119 by broth microdilution method; assay type: functional
Staphylococcus aureus [13] = test: Antibacterial activity against Staphylococcus aureus NRS120 by broth microdilution method; assay type: functional
[14] = test system: Staphylococcus epidermidis; test: Antibacterial activity against Staphylococcus epidermidis ATCC 35547 by broth microdilution method; assay type: functional
Bacillus cereus = test: Antibacterial activity against Bacillus cereus ATCC 13061 by broth microdilution method; assay type: functional
Bacillus licheniformis = test: Antibacterial activity against Bacillus licheniformis ATCC 12759 by broth microdilution method; assay type: functional
Enterococcus faecalis [15] = test: Antibacterial activity against vancomycin-resistant Enterococcus faecalis 99 clinical isolate by broth microdilution method; assay type: functional
Enterococcus faecium [16] = test: Antibacterial activity against vancomycin-susceptible Enterococcus faecium 119-39A clinical isolate by broth microdilution method; assay type: functional
Enterococcus faecium [17] = test: Antibacterial activity against vancomycin-resistant Enterococcus faecium 106 clinical isolate by broth microdilution method; assay type: functional
Enterococcus faecium [18] = test: Antibacterial activity against Enterococcus faecium NCTC 7171 by broth microdilution method; assay type: functional
[19] = Drug level in mouse thigh infected with linezolid-sensitive Staphylococcus aureus NRS70 at 40 mg/kg, po administered 1 hrs post infection and measured for 48 hrs; assay type: ADME, organism-based; settings: read-out: Drug uptake
[20] = Drug level in mouse thigh infected with linezolid-resistant Staphylococcus aureus NRS119 at 40 mg/kg, po administered 1 hrs post infection and measured for 48 hrs; assay type: ADME, organism-based; settings: read-out: Drug uptake

Compound: Oc1ccc(-c2noc(-c3ccc(O)cc3)n2)cc1
MIC (Staphylococcus aureus [1]): ≥ 128 µg/mL

Compound: Cl.Clc1c[nH]nc1-c1nc(-c2ccc(OC3CCCNC3)cc2)no1 (stereo unspecified)
MIC (Staphylococcus aureus [1]): ≥ 128 µg/mL

Compound: [N-]=[N+]=Nc1ccc(Oc2ccc(-c3noc(-c4ccc(O)cc4)n3)cc2)cc1
MIC (Staphylococcus aureus [1]): 2 µg/mL (≈ 5.39 µM)

Compound: Oc1ccc(-c2nc(-c3ccc(OC4CN5CCC4CC5)cc3)no2)cc1 (stereo unspecified)
MIC (Staphylococcus aureus [1]): 64 µg/mL (≈ 176 µM)

Compound: CN1CCCC(Oc2ccc(-c3noc(-c4ccc(O)cc4)n3)cc2)C1 (stereo unspecified)
MIC (Staphylococcus aureus [1]): 64 µg/mL (≈ 182 µM)

Compound: Clc1c[nH]nc1-c1nc(-c2ccc(OC3CCNCC3)cc2)no1
MIC (Staphylococcus aureus [1]): ≥ 128 µg/mL

Compound: [N-]=[N+]=Nc1cccc(Oc2ccc(-c3noc(-c4ccc(O)cc4)n3)cc2)c1
MIC (Staphylococcus aureus [1]): 2 µg/mL (≈ 5.39 µM)

Compound: Oc1ccc(-c2nc(-c3ccc(OC4CNC4)cc3)no2)cc1
MIC (Staphylococcus aureus [1]): 64 µg/mL (≈ 207 µM)

Compound: FC(F)(F)Oc1ccc2oc3ccc(-c4noc(-c5n[nH]cc5Cl)n4)cc3c2c1
MIC (Staphylococcus aureus [1]): > 128 µg/mL

Compound: CC(=O)N1CCC(Oc2ccc(-c3noc(-c4ccc(O)cc4)n3)cc2)CC1
MIC (Staphylococcus aureus [1]): ≥ 128 µg/mL

Compound: Oc1ccc(-c2nc(-c3ccc(OC4CCOC4)cc3)no2)cc1 (stereo unspecified)
MIC (Staphylococcus aureus [1]): ≥ 128 µg/mL

Compound: CC(=O)c1ccc(Oc2ccc(-c3noc(-c4n[nH]cc4Cl)n3)cc2)cc1
MIC (Staphylococcus aureus [1]): ≥ 128 µg/mL

Compound: CN[C@H](CC(C)C)C(=O)N[C@H]1C(=O)N[C@@H](CC(N)=O)C(=O)N[C@H]2C(=O)N[C@H]3C(=O)N[C@H](C(=O)N[C@H](C(=O)O)c4cc(O)cc(O)c4-c4cc3ccc4O)[C@H](O)c3ccc(c(Cl)c3)Oc3cc2cc(c3O[C@@H]2O[C@H](CO)[C@@H](O)[C@H](O)[C@H]2O[C@H]2C[C@](C)(N)[C@H](O)[C@H](C)O2)Oc2ccc(cc2Cl)[C@H]1O [VANCOMYCIN]
MIC (Staphylococcus aureus [2]): 64 µg/mL (≈ 44.2 µM)
MIC (Staphylococcus aureus [3]): 32 µg/mL (≈ 22.1 µM)
MIC [4]: 4 µg/mL (≈ 2.76 µM)
MIC (Enterococcus faecalis [5]): 2 µg/mL (≈ 1.38 µM)
MIC (Enterococcus faecalis [6]): 1 µg/mL (≈ 0.69 µM)

Compound: FC(F)(F)Oc1ccc(-c2noc(-c3n[nH]cc3Cl)n2)cc1
MIC (Staphylococcus aureus [1]): ≥ 128 µg/mL

Compound: Oc1ccc(-c2nc(-c3ccc(Oc4ccc(OC(F)(F)F)cc4)cc3)no2)cc1
MIC (Staphylococcus aureus [1]): 2 µg/mL (≈ 4.83 µM)
fraction unbound at 2 h [7]: 0.002
IC50 (HepG2): 16.9 µg/mL (≈ 40.8 µM)
hemolysis [8]: 2.1%

Compound: CC(C)(C)OC(=O)N1CCC(Oc2ccc(-c3noc(-c4n[nH]cc4Cl)n3)cc2)C1 (stereo unspecified)
MIC (Staphylococcus aureus [1]): ≥ 128 µg/mL

Compound: FC(F)(F)c1ccc(Oc2ccc(-c3noc(-c4ccc5[nH]ccc5c4)n3)cc2)cc1
MIC (Staphylococcus aureus [1]): 2 to 4 µg/mL (≈ 4.75 to 9.49 µM)
MIC (Staphylococcus aureus [9]): 4 µg/mL (≈ 9.49 µM)
MIC (Staphylococcus aureus [10]): 2 µg/mL (≈ 4.75 µM)
MIC (Staphylococcus aureus [11]): 2 µg/mL (≈ 4.75 µM)
MIC (Staphylococcus aureus [12]): 2 µg/mL (≈ 4.75 µM)
MIC (Staphylococcus aureus [13]): 2 µg/mL (≈ 4.75 µM)
MIC (Staphylococcus aureus [2]): 2 µg/mL (≈ 4.75 µM)
MIC (Staphylococcus aureus [3]): 2 µg/mL (≈ 4.75 µM)
MIC [14]: 2 µg/mL (≈ 4.75 µM)
MIC [4]: 4 to 8 µg/mL (≈ 9.49 to 19 µM)
MIC (Bacillus cereus): 16 µg/mL (≈ 38 µM)
MIC (Bacillus licheniformis): 8 µg/mL (≈ 19 µM)
MIC (Enterococcus faecalis [5]): 8 µg/mL (≈ 19 µM)
MIC (Enterococcus faecalis [6]): 4 µg/mL (≈ 9.49 µM)
MIC (Enterococcus faecalis [15]): 4 µg/mL (≈ 9.49 µM)
MIC (Enterococcus faecium [16]): 1 µg/mL (≈ 2.37 µM)
MIC (Enterococcus faecium [17]): 2 µg/mL (≈ 4.75 µM)
MIC (Enterococcus faecium [18]): 2 µg/mL (≈ 4.75 µM)
concentration at 48 h [19]: 7600 ng/g
concentration at 48 h [20]: 6000 ng/g

Compound: N#Cc1ccc(Oc2ccc(-c3noc(-c4n[nH]cc4Cl)n3)cc2)cc1
MIC (Staphylococcus aureus [1]): 128 µg/mL (≈ 352 µM)

Compound: Cl.Oc1ccc(-c2nc(-c3ccc(OC4CCNC4)cc3)no2)cc1 (stereo unspecified)
MIC (Staphylococcus aureus [1]): 16 µg/mL

Compound: CC(=O)NC[C@H]1CN(c2ccc(N3CCOCC3)c(F)c2)C(=O)O1 [LINEZOLID]
MIC (Staphylococcus aureus [9]): 1 µg/mL (≈ 2.96 µM)
MIC (Staphylococcus aureus [10]): 1 µg/mL (≈ 2.96 µM)
MIC (Staphylococcus aureus [11]): 1 µg/mL (≈ 2.96 µM)
MIC (Staphylococcus aureus [12]): 32 µg/mL (≈ 94.9 µM)
MIC (Staphylococcus aureus [13]): 32 µg/mL (≈ 94.9 µM)
MIC (Staphylococcus aureus [2]): 1 µg/mL (≈ 2.96 µM)
MIC (Staphylococcus aureus [3]): 1 µg/mL (≈ 2.96 µM)
MIC [14]: 0.5 µg/mL (≈ 1.48 µM)
MIC [4]: 1 µg/mL (≈ 2.96 µM)
MIC (Bacillus cereus): 0.5 µg/mL (≈ 1.48 µM)
MIC (Bacillus licheniformis): 0.5 µg/mL (≈ 1.48 µM)
MIC (Enterococcus faecium [16]): 1 µg/mL (≈ 2.96 µM)
MIC (Enterococcus faecium [17]): 1 µg/mL (≈ 2.96 µM)
MIC (Enterococcus faecium [18]): 1 µg/mL (≈ 2.96 µM)

Compound: CN1[C@@H]2CC[C@@H]1CC(Oc1ccc(-c3noc(-c4n[nH]cc4Cl)n3)cc1)C2 (stereo partly specified)
MIC (Staphylococcus aureus [1]): 64 µg/mL (≈ 166 µM)

Compound: Oc1ccc(-c2nc(-c3ccc4oc5ccc(F)cc5c4c3)no2)cc1
MIC (Staphylococcus aureus [1]): ≥ 128 µg/mL

Compound: N#Cc1ccc(Oc2ccc(-c3noc(-c4ccc(O)cc4)n3)cc2)cc1
MIC (Staphylococcus aureus [1]): ≥ 128 µg/mL

Compound: Cc1nc2cc(Oc3ccc(-c4noc(-c5n[nH]cc5Cl)n4)cc3)ccc2s1
MIC (Staphylococcus aureus [1]): 16 µg/mL (≈ 39 µM)

Compound: CC(C)(C)OC(=O)NC1CCC(Oc2ccc(-c3noc(-c4ccc(O)cc4)n3)cc2)CC1 (stereo unspecified)
MIC (Staphylococcus aureus [1]): ≥ 128 µg/mL

Compound: Oc1ccc(-c2nc(-c3ccc4oc5ccc(C(F)(F)F)cc5c4c3)no2)cc1
MIC (Staphylococcus aureus [1]): ≥ 128 µg/mL

Results, then the compound that gave them:

MIC (Staphylococcus aureus [1]): 8 µg/mL (≈ 18.9 µM)
Compound: Oc1ccc(-c2nc(-c3ccc(Oc4ccccc4CBr)cc3)no2)cc1

MIC (Staphylococcus aureus [1]): ≥ 128 µg/mL
Compound: Nc1ccccc1Oc1ccc(-c2noc(-c3ccc(O)cc3)n2)cc1

MIC (Staphylococcus aureus [1]): 2 µg/mL (≈ 4.89 µM)
Compound: Oc1ccc(-c2nc(-c3ccc(Oc4ccc(Br)cc4)cc3)no2)cc1

MIC (Staphylococcus aureus [1]): 4 µg/mL (≈ 10.7 µM)
Compound: O=[N+]([O-])c1ccccc1Oc1ccc(-c2noc(-c3ccc(O)cc3)n2)cc1

MIC (Staphylococcus aureus [1]): 4 µg/mL (≈ 9.77 µM)
Compound: Oc1ccc(-c2nc(-c3ccc(Oc4cccc(Br)c4)cc3)no2)cc1

MIC (Staphylococcus aureus [1]): 2 µg/mL (≈ 4.38 µM)
Compound: Oc1ccc(-c2nc(-c3ccc(Oc4ccccc4I)cc3)no2)cc1

MIC (Staphylococcus aureus [1]): ≥ 128 µg/mL
Compound: Oc1ccc(-c2nc(-c3ccc(Oc4ccccn4)cc3)no2)cc1

MIC (Staphylococcus aureus [1]): ≥ 128 µg/mL
Compound: OCc1ccccc1Oc1ccc(-c2noc(-c3ccc(O)cc3)n2)cc1

MIC (Staphylococcus aureus [1]): 2 µg/mL (≈ 5.39 µM)
Compound: [N-]=[N+]=Nc1ccccc1Oc1ccc(-c2noc(-c3ccc(O)cc3)n2)cc1

MIC (Staphylococcus aureus [1]): 4 µg/mL (≈ 8.77 µM)
Compound: Oc1ccc(-c2nc(-c3ccc(Oc4ccc(I)cc4)cc3)no2)cc1

MIC (Staphylococcus aureus [1]): 4 µg/mL (≈ 8.77 µM)
Compound: Oc1ccc(-c2nc(-c3ccc(Oc4cccc(I)c4)cc3)no2)cc1

— ChEMBL document CHEMBL4342484, “Structure-Activity Relationship for the Oxadiazole Class of Antibacterials” (ACS Med Chem Lett, 2020)
